# Experimental data: paper PMC4607724, “Discovery and optimisation studies of antimalarial phenotypic hits” (European Journal of Medicinal Chemistry, 2015)
# Read-outs that look alike come from different tables or passages of the source.
# How the values were obtained:
# [1] = Chromatographic LogD estimation (gLogD); type: physicochemical; conditions: chromatographic gLogD technique, pH 7.4
# Experimental: (§1) IV. Physicochemical Evaluation […]
# Chromatographic Log D Estimation: The partition coefficient (gLogDpH 7.4) of 20 was estimated by correlation of its chromatographic retention properties with the retention characteristics of a series of standard compounds with known partition coefficient values. Data were collected using a Waters 2785 HPLC with a Waters 2487 dual channel UV detector with a Phenomenex Synergi Hydro-RP 4 µm (30 mm x 2 mm) column. The mobile phase was aqueous buffer (50 mM ammonium acetate, pH 7.4) and acetonitrile with an acetonitrile gradient of 0-100% over 10 min. Compound elution was monitored at 220 and 254 nm. […]
# [2] = system: P. falciparum K1; experiment: In vitro activity against erythrocytic stages of P. falciparum, 3H-hypoxanthine incorporation assay; type: cell-based; conditions: Plasmodium falciparum; K1 strain (chloroquine and pyrimethamine resistant); means of two independent assays; read-out: P. falc. EC50
# Experimental: (§2) VI. Design and Results of the in vitro & in vivo Studies.
# A. Drug inhibition of in vitro cultured P. falciparum parasite:[2] All in vitro assays were carried out twice independently in duplicate.In vitro activity against theerythrocytic stages of P. falciparum was determined by using a 3H-hypoxanthine incorporation assay, using the chloroquine and pyrimethamine resistant K1 strain and the standard drugs chloroquine (Sigma C6628) and artemisinin (Arteannuin, Qinghaosu; Sigma 36,159- 3). Compounds were dissolved in DMSO at 10 mg/mL and added to parasite cultures incubated in RPMI 1640 medium without hypoxanthine, supplemented with HEPES (5.94 g/L), NaHCO3 (2.1 g/L), neomycin (100U/mL), AlbumaxR (5 g/L), and washed human red cells A+ at 2.5% haematocrit (0.3% parasitaemia). Serial doubling dilutions of each drug were prepared in 96-well microtiter plates and incubated in a humidified atmosphere at 37 °C; 4% CO 2, 3% O2, 93% N2. After 48 h, 50 µLof 3H-hypoxanthine (= 0.5 µCi) was added to each well of the plate. The plates were incubated for an additional 24 h under the same conditions. The plates were then harvested with a Betaplate cell harvester (Wallac, Zurich, Switzerland), and the red blood cells were transferred onto a glass fiber filter and then washed with distilled water. The dried filters were inserted into a plastic foil with 10 mL of scintillation fluid and were counted in a Betaplate™ liquid scintillation counter (Wallac, Zurich, Switzerland); IC50values were calculated from sigmoidal inhibition curves using Microsoft Excel. […]
# [3] = Aqueous solubility estimation by nephelometry; type: physicochemical; conditions: 1% DMSO
# Experimental: as §1
# Solubility Estimation: Aqueous solubility was estimated by nephelometry. A concentrated
# stock solution prepared in DMSO was spiked into either pH 6.5 phosphate buffer or 0.01 N HCl
# (approx. pH 2.0) with the final DMSO concentration being 1%. Samples were then analyzed by
# Nephelometry to determine the solubility range as described previously.[9] […]
# [4] = Metabolic stability, NADPH-dependent degradation in mouse liver microsomes; type: in vitro ADME
# Experimental: (§3) Compound 20 (1 µM) was incubated at 37 ° C with human or mouse liver microsomes (BD Gentest, Discovery Labware Inc., Woburn, MA). The reaction was initiated by the addition of an NADPH-regenerating system containing 1 mg/mL NADP, 1 mg/mL glucose-6-phosphate, 1 U/mL glucose-6-phosphate dehydrogenase, and 0.67 mg/mL MgCl2and quenched at various time points over the incubation period (60 min) by the addition of ice cold acetonitrile. Samples were also incubated in the absence of co-factor to monitor for non-specific degradation. The relative loss of parent compound and formation of metabolic products were monitored by LC/MS using a Waters/Micromass LCT instrument.
# (§4) Compound concentration versus time data were fitted to an exponential decay function to determine the first-order rate constant for substrate depletion which was used to obtain the in vitro intrinsic clearance (in vitro CLint), and then scaled to predict the human intrinsic clearance (scaling parameters included liver mass of 25.7 g liver/kg body weight for human and 87.5 g liver/kg body weight for mouse and microsomal protein content of 45 mg microsomal protein/g liver mass for […]
# (§5) both species)[10]. […]
# [5] = In vitro cytotoxicity assay in L-6 cells (Alamar Blue); conditions: rat, L-6 cells (rat skeletal myoblasts)
# Experimental: as §2
# A. Drug inhibition of in vitro cultured P. falciparum parasite:[2] […]
# B. In vitro cytotoxicity assay: [2] Assays were performed in 96-well microtiter plates, each well containing 100 µl of RPMI 1640 medium supplemented with 1% L-glutamine (200mM) and 10% fetal bovine serum, and 4 x 10^4 L-6 cells (a primary cell line derived from rat skeletal myoblasts).
# Serial drug dilutions of seven 3-fold dilution steps covering a range from 90 to 0.123 µg/mL were prepared. After 72 h of incubation the plates were inspected under an inverted microscope to assure growth of the controls and sterile conditions. 10µL of Alamar Blue was then added to each well and the plates incubated for another 2 h. Then the plates were read with a Spectramax Gemini XS microplatefluorometer (Molecular Devices Cooperation, Sunnyvale, CA, USA) using an excitation wave length of 536 nm and an emission wave length of 588 nm. Data were analysed using the microplate reader software Softmax Pro (Molecular Devices Cooperation, Sunnyvale, CA, USA).
# [6] = Metabolic stability, NADPH-dependent degradation in human liver microsomes; type: in vitro ADME
# Experimental: as §3, §4, §5
smiles,measurement,setting,value
"Cc1cc(/C=C2\S/C(=N\c3ccccc3)N(C3CCCCC3)C2=O)c(C)n1-c1ccc(F)cc1 [Compound 20, (2Z, 5Z)-3-Cyclohexyl-5-((1-(4-fluorophenyl)-2,5-dimethyl-1H-pyrrol-3-yl)methylene)-2-(phenylimino)thiazolidin-4-one]",chromatographic logD,[1],7.1
same,EC50,[2],2000 nM
same,Solubility pH 2.0,[3]; pH 2.0 (0.01 N HCl),poor aqueous solubility
same,solubility,"[3]; pH 2.0 (0.01 N HCl), read-out: Solubility pH 2.0",< 0.8 µg/mL
same,Solubility pH 6.5,[3]; pH 6.5 phosphate buffer,poor aqueous solubility
same,solubility,"[3]; pH 6.5 phosphate buffer, read-out: Solubility pH 6.5",0.8 to 1.6 µg/mL
same,NADPH-dependent degradation,[4]; incubation with mouse liver microsomes,rapid NADPH-dependent degradation
same,CLint scaled at 1 µM,"[4]; liver microsomes, mouse, scaled from in vitro CLint, read-out: Microsome predicted in vivo CLint",216 mL/min/kg
same,In vitro CLint,"[4]; mouse liver microsomes, 1 µM, 37 °C, NADPH",0.055 ml/min/mg Protein
same,Metabolites detected,"[4]; mouse liver microsomes, LC/MS",no obvious metabolites were detected and None
same,Microsome predicted hepatic extraction ratio EH,"[4]; mouse, well-stirred model",0.71
same,EC50 at 72 h,[5],> 190000 nM
same,Metabolites detected,"[6]; human liver microsomes, LC/MS",no obvious metabolites were detected and None
same,Microsome predicted hepatic extraction ratio EH,"[6]; human, well-stirred model",0.67
same,NADPH-dependent degradation,[6]; incubation with human liver microsomes,rapid NADPH-dependent degradation
same,CLint scaled at 1 µM,"[6]; liver microsomes, human, scaled from in vitro CLint, read-out: Microsome predicted in vivo CLint",42 mL/min/kg
